Results published in patent EP0494622A1, “Bridged cyclic ketal derivatives” (priority 1991, dated 1992).
In brackets after ≈: the same amount, converted by molar mass. Counter-ions that a name gives are not always drawn.

Key:
squalene synthase = target: T1, squalene synthase (Rattus norvegicus, UniProt Q02769); test: Inhibition of squalene synthase in rat liver homogenate with [2-14C]farnesylpyrophosphate as substrate; [14C]squalene separated by TLC and counted by liquid scintillation; type: biochemical; conditions: concentration giving 50% inhibition of [14C]squalene production in a 30 minute assay, read-out: IC₅₀
T1 construct: from tissue; host or cells: rat liver homogenate
T1 sequence (Q02769 1-416): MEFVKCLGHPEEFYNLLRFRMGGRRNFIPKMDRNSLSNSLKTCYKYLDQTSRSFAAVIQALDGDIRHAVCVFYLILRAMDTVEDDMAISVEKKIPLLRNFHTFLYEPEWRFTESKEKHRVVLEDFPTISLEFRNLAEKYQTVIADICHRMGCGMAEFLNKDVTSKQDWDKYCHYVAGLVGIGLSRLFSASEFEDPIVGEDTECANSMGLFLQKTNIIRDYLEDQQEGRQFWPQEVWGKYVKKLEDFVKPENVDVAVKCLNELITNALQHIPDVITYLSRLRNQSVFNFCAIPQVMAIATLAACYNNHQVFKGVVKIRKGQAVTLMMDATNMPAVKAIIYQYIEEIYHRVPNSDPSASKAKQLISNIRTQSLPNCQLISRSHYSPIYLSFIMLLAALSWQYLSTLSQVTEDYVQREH
Description: Acta, Volume 877, 50-60 (1986) and modified to include measurement of cholesterol by high performance liquid chromatography (h.p.l.c.).
(§1) [¹⁴C] Squalene was separated from unreacted substrate on thin layer chromatography plates and determined by liquid scintillation counting. Inhibition of squalene synthase was quantified by incubating rat liver homogenate with various concentrations of the test compound in the presence of[2-¹⁴C] farnesylpyrophosphate. The concentration of compound giving 50% inhibition of [¹⁴C] squalene production in a 30 minute assay was taken as the IC₅₀ value. […] In practice, a series of agar plates, each having the test compound incorporated at a particular concentration, was inoculated with a standard culture of a clinically relevant pathogen, for example Candida albicans, and each plate was then incubated at 37 °C for 24 to 48 hours depending on the pathogen. The plates were then examined for the presence or absence of growth of the fungus and the appropriate MIC was noted. In this test the title compounds in Examples 19, Example 3 Compound 1 and Example 7 Compound 1 had MICs in the range of 1 to 31 µg/ml against a variety of clinically relevant pathogens.

[1] = tested on: a variety of clinically relevant pathogens; test: In vitro antifungal activity: minimum inhibitory concentration (MIC) on agar plates containing the test compound; type: cell-based; conditions: Candida albicans, read-out: MICs
Description: as §1, with “The in vitro evaluation of the anti-fungal activity of compounds of the invention can be performed by determining the minimum inhibitory concentration (MIC) which is the concentration of the test compound in a suitable medium at which growth of a particular microorganism fails to occur. […] A. […] [¹⁴C] Squalene” for “[¹⁴C] Squalene”, “was noted.” for “was noted. In this test the title compounds in Examples 19, Example 3 Compound 1 and Example 7 Compound 1 had MICs in the range of 1 to 31 µg/ml against a variety of clinically relevant pathogens.”

Row | SMILES | IC50 (squalene synthase) [nM] | MIC [1] [µg/mL]
1 | C=C(CC[C@]12OC[C@@](O)(C(=O)O)[C@](C(=O)O)(O1)[C@H](OC(=O)/C=C/[C@@H](C)C[C@@H](C)CC)[C@H]2O)[C@@H](OC(C)=O)[C@H](C)Cc1ccccc1 (relative stereo) [Example 3 Compound 1, [1S-[1α(4R*,5S*),4β,5α,6α(2E,4R*,6R*),7β]] 1-(4-Acetyloxy-5-methyl-3-methylene-6-phenylhexyl)-4,6,7-trihydroxy-2,8-dioxabicyclo [3.2.1]octane-4,5-dicarboxylic acid, 6-(4,6-dimethyl-2-octenoate)] | < 100 | 1 to 31 (≈ 1.55 to 47.9 µM)
2 | C=C(CC[C@]12OC[C@@](O)(C(=O)OC)[C@](C(=O)O)(O1)[C@H](OC(=O)/C=C/[C@@H](C)C[C@@H](C)CC)[C@H]2O)[C@@H](OC(C)=O)[C@H](C)Cc1ccccc1 (relative stereo) [Example 3 Compound 2, [1S-[1α(4R*,5S*),4β,5α,6α(2E,4R*,6R*),7β]] 1-(4-acetyloxy-5-methyl-3-methylene-6-phenylhexyl)-4,6,7-trihydroxy-2,8-dioxabicyclo[3.2.1]octane-4,5-dicarboxylic acid, 6-(4,6-dimethyl-2-octenoate), 4-methyl ester] | < 100 | –
3 | C=C(CC[C@]12O[C@H](CO)[C@@](O)(C(=O)O)[C@](C(=O)O)(O1)[C@H](OC(=O)/C=C/[C@@H](C)C[C@@H](C)CC)[C@H]2O)[C@@H](OC(C)=O)[C@H](C)Cc1ccccc1 (relative stereo) [Example 7 Compound 1, [1S-[1α(4R*,5S*),3α,4β,5α,6α(2E,4R*,6R*),7β]] 1-(4-Acetyloxy-5-methyl-3-methylene-6-phenylhexyl)-3-hydroxymethyl-4,6,7-trihydroxy-2,8-dioxabicyclo[3.2.1]octane-4,5-dicarboxylic acid, 6-(4,6-dimethyl-2-octenoate)] | < 100 | 1 to 31 (≈ 1.48 to 45.8 µM)
4 | C=C(CC[C@]12O[C@H](CO)[C@@](O)(C(=O)OC)[C@](C(=O)O)(O1)[C@H](OC(=O)/C=C/[C@@H](C)C[C@@H](C)CC)[C@H]2O)[C@@H](OC(C)=O)[C@H](C)Cc1ccccc1 (relative stereo) [Example 7 Compound 2, [1S-[1α(4R*,5S*),3α,4β,5α,6α(2E,4R*,6R*),7β]] 1-(4-acetyloxy-5-methyl-3-methylene-6-phenylhexyl)-3-hydroxymethyl-4,6,7-trihydroxy-2,8-dioxabicyclo[3.2.1]octane-4,5-dicarboxylic acid, 6-(4,6-dimethyl-2-octenoate),4-methyl ester] | < 100 | –
5 | C=C(CC[C@]12O[C@H](CO)[C@@](O)(C(=O)O)[C@](C(=O)O)(O1)[C@H](OC(=O)CC[C@@H](C)C[C@@H](C)CC)[C@H]2O)[C@@H](OC(C)=O)[C@H](C)Cc1ccccc1 (relative stereo) [Example 10, [1S-[1α(4R*,5S*),3α,4β,5α,6α(4S*,6R*),7β]] 1-(4-Acetyloxy-5-methyl-3-methylene-6-phenylhexyl)-3-hydroxymethyl-4,6,7-trihydroxy-2,8-dioxabicyclo[3.2.1]octane-4,5-dicarboxylic acid, 6-(4,6-dimethyloctanoate), dipotassium salt] | < 100 | –
6 | C=C(CC[C@]12O[C@H](CO)[C@@](O)(C(=O)O)[C@](C(=O)O)(O1)[C@H](OC(=O)/C=C/[C@@H](C)C[C@@H](C)CC)[C@H]2O)[C@@H](O)[C@H](C)Cc1ccccc1 (relative stereo) [Example 11, [1S-[1α(4R*,5S*),3α,4β,5α,6α(2E,4R*,6R*),7β]] 1-(4-Hydroxy-5-methyl-3-methylene-6-phenylhexyl)-3-hydroxymethyl-4,6,7-trihydroxy-2,8-dioxabicyclo[3.2.1]octane-4,5-dicarboxylic acid, 6-(4,6-dimethyl-2-octenoate)] | < 100 | –
7 | C=C(CC[C@]12O[C@H](CO)[C@@](O)(C(=O)O)[C@](C(=O)O)(O1)[C@H](OC(=O)CC[C@@H](C)C[C@@H](C)CC)[C@H]2O)[C@@H](O)[C@H](C)Cc1ccccc1 (relative stereo) [Example 25, [1S-[1α(4R*,5S*),3α,4β,5α,6α(4S*,6R*),7β]] 1-(4-Hydroxy-5-methyl-3-methylene-6-phenylhexyl)-3-hydroxymethyl-4,6,7-trihydroxy-2,8-dioxabicyclo[3.2.1]octane-4,5-dicarboxylic acid, 6-(4,6-dimethyloctanoate)] | < 100 | –
